For experiment [1], the system named is normal cell lines PrEC, HMEC, WI38 and cancer cell lines DU145, MDA-MB-435, HT-29. Nature of the experiment: Cancer cell selectivity, IC90 in normal versus cancer cell lines (XTT). Format: cell-based, human. Particulars: average IC90 of all normal / average IC90 of all cancer cell lines, 6 to 7 days. An excerpt: An exemplary method of assessing the differential sensitivity between normal and cancer cells for a compound has been described by Vassilev et al. (Anti-Cancer Drug Design (2001) 16:7). This method involves the comparison of IC90 values, i.e. the molar concentration of a test compound required to cause 90% growth inhibition of exponentially growing cells. Thus, the IC90 values for candidate compounds can be evaluated in various cancer cell lines (such as those outlined above) and normal cells (such as HUVEC and/or WI38 cells) and compared. IC90 values can be measured using a variety of standard techniques as known in the art. Cancer cell selectivity is calculated as a ratio between the average IC90 for all normal cell lines and the average IC90 for all cancer cell lines. Compounds with an IC90 ratio (normal/cancer) of >4 are considered to be selective for cancer cells (L. T. Vassilev et al., Anti-cancer Drug Design, 2001, 16: 7-17).
The normal cells lines used were PrEC (prostate), HMEC (breast), and WI38 (lung fibroblast) cell lines and the cancer cells lines were DU145 (prostate), MDA-MB-435 (breast), HT-29 (colon). IC90 values were also determined for the controls doxorubicin and etoposide. The cells were cultured as generally described in Example 13. Various concentrations of the compounds were incubated with the cells for 6 to 7 days, and the number of proliferating cells was measured using the XTT assay. Cancer cell selectivity was calculated as a ratio between the average IC90 for all normal and the average IC90 for all cancer cell lines.
(In general: Tetrazolium assays rely on reduction of a dye to a coloured formazan, in cell work by metabolically active cells.)

Experiment [2] concerns copper transporter, Ctrl also known as SLC31A1. The experiment is described as follows: Copper transporter Ctr1 (SLC31A1) gene expression in HT-29 cells, RT-PCR. Format: cell-based, human. As to the method: The effect of compound 3 and compound 7 treatment on the expressions of a zinc-storage protein meallothionein 1A (MT1A) (FIG. 29A), a copper transporter, Ctrl also known as SLC31A1 (FIG. 29B) and an iron transporter; transferrin receptor 1 (TfR1) (FIG. 29C) were measured and compared with a known zinc chelator TPEN, a copper chelator tetramine and an iron chelator DFO, respectively. Despite in vitro chelation of Cu^+2, increase in copper-sensitive gene after compound 3 treatment was transient.

The next experiment deals with Sp1. The experiment is described as follows: Sp1 DNA binding activity, EMSA, HT-29 nuclear extracts. Format: cell-based, human. As for the experimental part:
Based on overlapping transcription factor binding sites on KLF4 gene promoter region (as shown in FIG. 32A), MTF-1 binding may favor increased binding of other KLF4 inducers; Sp1 and KLF4.
Electrophoretic mobility shift assay (EMSA) was performed as follows. Nuclear extracts from HT-29 cells (10^7 cells in 100 mm culture dish in each experimental group) were prepared using nuclear extraction kit (Panomics, Redwood City, Calif.). EMSA assays were performed using KLF4 and Sp1 EMSA “Gel-Shift” kits (Panomics), by following the manufacturer's instruction. Briefly, 5 μg of nuclear extract was used for each binding reaction. After 30 min of binding reaction, the samples were separated on 6% polyacrylamide gel at 4° C. at 120 V, and transferred to BrightStar™-Plus positively charged nylon membrane. The biotin-labeled probes on the membrane were visualized by using ECL detection system (Panomics).
In general terms: Mobility shift assays separate free from complexed probe on a gel.

Another experiment concerns MTF-1. Nature of the experiment: MTF-1 DNA-binding activity, EMSA, HT-29 nuclear extract. Format: cell-based, human. As for the experimental part:
To verify the change in MTF-1 activity at earlier time of incubation, prior to the significant decrease in MTF-1 gene expression, MTF-1 nuclear translocation and DNA-binding activity was determined in nuclear extract of HT-29 cells treated with compound 3 for 4 hr, by electrophoretic mobility shift assay (EMSA) (FIG. 40B) as follows. HT-29 cells were treated with DMSO, 35 μM ZnCl2 (positive control) and 1 μM compound 3 for 4 hr. Nuclear protein was extracted and incubated with biotin-labeled MTF-1 binding oligonucleotide probes. The retarded mobility of labeled probe upon MTF-1 binding was observed as a band shift (FIG. 40B). […] In zinc-treated groups, 2 additional shift bands (open arrows) were observed (lane 3), indicating the increase in zinc-dependent MTF-1 activity. […] Excess unlabeled probes were added in lane 2, 4 and 6 to compete the labeled probes binding with MTF-1 in the nuclear extract, showing the specificity of MTF-1-binding shift bands in lane 1, 3 and 5, respectively.
HT-29 cells were treated with 35 μM ZnCl2 for 4 hr and the nuclear extract from zinc-treated cells (zinc-activated MTF-1) was treated with compound 3 in vitro and DNA-binding activity of MTF-1 to MRE sequence was assessed by electrophoretic mobility shift assay (EMSA) (Panomics, Redwood City, Calif.).
To examine inactivation of MTF-1 by compound 3 in the cells, HT-29 cells were treated with compound 3 for 1 to 4 hr and DNA-binding activity of MTF-1 in the nuclear extract was assessed by EMSA.

The subject of the next experiment is p21 protein. Nature of the experiment: p21 protein in HT-29 total cell lysate, ELISA / Western blot. Format: cell-based, human. The note with it: HT-29, 1 μM. As for the experimental part: The expressions of p21 gene and proteins were examined following treatment with compound 3. Gene expression of p21 in HT-29 cells treated with 1 μM compound 3 was determined at the indicated times as follows. Total RNA was extracted and gene expression level was determined by RT-PCR (FIG. 42A). The level of p21 protein in total cell lysate was measured by ELISA (FIG. 42B) as follows. HT-29 cells were treated with 1 μM compound 3 with and without 20 μM MG-132 (proteasome inhibitor) for indicated time.
On the technique in general: An ELISA detects its analyte on a solid surface through an enzyme-linked reagent.

Experiment [3] concerns MT-1 isolated from rabbit liver. Nature of the experiment: Chelation of zinc from metallothionein MT-1, PAR colorimetric zinc assay. Format: biochemical. Particulars: 25 μM MT, compound 0.15 to 60 μM, 15 min. An excerpt: Intracellular zinc exists as a labile pool, loosely bound to storage proteins metallothioneins (MT), which store up to 7 or 8 zinc per molecule. The labile zinc pool donates zinc to enzymes or transcription factors, which require reversible binding with zinc for their full activity (Tapiero and Tew (2003) Biomed Pharmacother 57(9): 399-411). The efficiency of compound 3 to remove zinc from MT was investigated. MT-1 isolated from rabbit liver, containing mainly MT-1a and MT-2e with ˜7 zinc per molecule in ≧95% of MT was purchased from Alexis Biochemicals (Lausen, Switzerland). The content of zinc in MT was measured in vitro using 4-(2-pyridylazo) resorcinol (PAR) colorimetric zinc assay as described in the preceding Examples. The change in absorbance of PAR after PAR-zinc ion complex formation was measured at 500 nm (Dinkova-Kostova et al., (2005) Biochemistry 44(18): 6889-6899). To determine chelation of zinc from MT-1 by compound 3 in vitro, MT-125 μM in […] volume of 0.2M Tris-HCl, pH 7.5 was added to 96-well plate. Compound 3 (0.15 to 60 μM) in 80% acetonitrile/20% DMSO was added to MT-1 for 15 min at room temperature. PAR (200 μM in 0.2M Tris-HCl, pH 7.5) was added and the color development of PAR-zinc complex was measured by a multi-well spectrophotometer at 500 nm as shown in FIG. 47.

Data on one compound can be found in patent US8148392B2, “2-indolyl imidazo [4,5-d] phenanthroline derivatives and their use in the treatment of cancer” (Lorus Therapeutics Inc., priority 2005, dated 2012).

In the case of `Cc1[nH]c2ccccc2c1-c1nc2c3cccnc3c3ncccc3c2[nH]1` [Compound 3], the “Normal/cancer IC90 ratio” value in experiment [1] was over 4.3. The copper-sensitive gene expression result in experiment [2] is on record as “transient”. The “DNA binding activity of Sp1” value in the experiment on Sp1 is on record as “Increased DNA binding activities”. The “DNA-binding activity of MTF-1” value with MTF-1 (HT-29 cells treated for 1 to 4 hr) is “Significant decrease in MTF-1 activity”. The “zinc-dependent MTF-1 DNA-binding activity” value in the experiment with MTF-1 (HT-29 treated with 1 μM for 4 hr, versus ZnCl2 positive control) is reported as “zinc-dependent MTF-1 activity was not increased”. For the same compound, in the experiment with MTF-1 (nuclear extract of zinc-treated HT-29 cells treated in vitro), the “DNA-binding activity of zinc-activated MTF-1” value is recorded as “Inactivation of MTF-1 DNA-binding”. Moreover, the p21 protein level entry in the experiment with p21 protein (with 20 μM MG-132 (proteasome inhibitor)) is “increased p21 protein level was detected”. Besides, the p21 protein expression entry with p21 protein (without MG-132) is recorded as “comparable increase in p21 protein expression was not detected”. The “PAR absorbance of MT (removal of zinc from metallothionein)” value in experiment [3] is recorded as “Dose-dependent decreases in PAR absorbance”.
